Common to all, as to assay: NCI-60 cell line screen, 48 h
Assay [1] deals with RXF 393 renal.
Assay [2] concerns NCI/ADR-RES ovarian.
In assay [3] the test system is MDA-MB-435.
In assay [4] the test system is HS 578T breast.
Assay [5] has as its system HL-60(TB) leukemia.
The subject of assay [6] is UACC-62 melanoma.
In assay [7] the test system is SN12C renal.
The test system of assay [8] is A549 NSCLC.
The subject of assay [9] is UO-31 renal.
Assay [10] relates to BT-549 breast.

Molecules are shown by their SMILES.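 Dose response: 5 concentrations. Exposure: 48 h. Format: 96-well plates. Endpoint: linear interpolation; highest concentration if not reached. TGI: concentration producing complete growth inhibition.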 Where only a bound is given, the exact number is not on record here.

Take `CC(C)[C@H](NC(=O)OCc1ccccc1)C(=O)N[C@H](/C=C/C(=O)OC(C)(C)C)CO`: the TGI in assay [1], in assay [2], in assay [3], in [4], in assay [5] and in assay [6] was over 100 µM each time. In addition, the TGI in assay [7] and in [8] was over 100 µM throughout.
Take `CSC(=NCCCN=C(NS(=O)(=O)c1ccc(Cl)cc1)SC)NS(=O)(=O)c1ccc(Cl)cc1`: the TGI was over 100 µM in assay [2]; over 100 µM in [3]; 40.5 µM in assay [9]; 47.1 µM in assay [5]; over 100 µM in assay [6]; over 100 µM in assay [7].
For `CNC(=O)N(C)C(=O)c1ccccc1C(=O)N(C)C(=O)NC`, the TGI in [1], in assay [2], in assay [9], in assay [4], in assay [5] and in assay [6] was over 10 µM in each case. Besides, the TGI in [7], in [8] and in assay [10] was over 10 µM in each case.
Regarding `Nc1cc(O)c2cc(N=Nc3ccc(N=Nc4ccc(N=Nc5ccc6cc(S(=O)(=O)O)cc(S(=O)(=O)O)c6c5)c5ccccc45)c4cc(S(=O)(=O)O)ccc34)c(S(=O)(=O)O)cc2c1`, the TGI in assay [1], in [2], in assay [9], in assay [5], in [6] and in assay [7] was over 100 µM throughout. The molecule further gave a TGI in [8] of over 100 µM.
Consider `CC(C)S1=C2C(=O)CC(C)(C)CC2=Nc2ccccc21` (stereo not given), for which the TGI in assay [1], in assay [2], in [3], in [9], in [4] and in [6] was over 100 µM each time. Further, the TGI in assay [7], in [8] and in assay [10] was over 100 µM throughout.
As to `NS(=O)(=O)c1cc2c(cc1Cl)NC(C(=O)NNC(=O)c1ccncc1)=NS2(=O)=O`, the TGI in assay [1], in assay [9], in assay [5], in assay [6], in [7] and in assay [8] was over 100 µM in each case.
`COc1ccc(N=C(SSC(=Nc2ccc(OC)cc2)c2ccc([N+](=O)[O-])o2)c2ccc([N+](=O)[O-])o2)cc1`: the TGI was 2.92 µM in assay [1]; 3.93 µM in assay [3]; 3.01 µM in [9]; 5.43 µM in [4]; 7.07 µM in assay [5]; 3.16 µM in assay [6]. The TGI in [7] was 4.87 µM; in assay [8] it was over 100 µM; in [10], 3.22 µM.
With `CCOC(=O)N/N=C(/N)Cc1ccc(Cl)cc1`, the TGI in [1], in assay [2], in [3], in assay [9], in [6] and in [7] was over 100 µM each time. Besides, the TGI in [8] and in [10] was over 100 µM throughout.
Consider `NS(=O)(=O)C1CCCCC1C(=O)NNC(=O)C(=O)Nc1nc(=S)[nH][nH]1` (stereo not given), for which the TGI in assay [1], in assay [9], in [5], in [6], in [7] and in [8] was over 100 µM in each case.
Take `CCOC(=O)c1sc2nc(SC)nc3c2c1NCN3c1ccccc1Cl`: the TGI in assay [1] was 73 µM; in [2], over 100 µM; in [3], over 100 µM; in [9], over 100 µM; in [4], 73.3 µM; in assay [6], over 100 µM. Also, the TGI in [7], in [8] and in [10] was over 100 µM in each case.
As to `Nn1c(=S)[nH]nc(/C=C/c2c(O)ccc3ccccc23)c1=O`, the TGI in assay [2] was 14.4 µM; in assay [3], over 100 µM; in assay [9], 34.8 µM; in [5], 4.14 µM; in assay [6], 26.2 µM; in assay [8], 71.2 µM. Further, the TGI in assay [10] came to 31.3 µM.
On to `Nc1nc2c(ccc3ccccc32)[nH]1`, for which the TGI in [1], in assay [2], in assay [3], in assay [9], in [4] and in assay [5] was over 10 µM throughout. For the same molecule, the TGI in [6], in [7] and in [8] was over 10 µM each time.
As for `CCCCCCCCCCCC1=C(O)C(=O)C=C(O)C1=O`, the TGI in assay [1] was 54.6 µM; in [2], 16.4 µM; in [9] it was 14 µM; in [5], 12.6 µM; in assay [6], 10.5 µM; in assay [7], 12.9 µM. The TGI in assay [8] is 13.4 µM.
Consider `N/N=C(\N)SCc1ccc(N=C=S)cc1`, for which the TGI in [1], in assay [2], in assay [3], in assay [9], in assay [4] and in assay [5] was over 100 µM each time. For the same molecule, the TGI in assay [6], in assay [7] and in assay [8] was over 100 µM in each case.
As to `Cn1c(=O)c(C#N)c(O)c2cc3ccccc3nc21`, the TGI in assay [1], in [9], in assay [5], in assay [7] and in assay [8] was over 100 µM throughout.
On to `COc1cc(O)c2c(=O)c(O)c(-c3ccc(O)c(O)c3)oc2c1`, for which the TGI was 32.9 µM in assay [2]; 85.5 µM in [3]; 42.1 µM in assay [9]; 12.8 µM in assay [5]; over 100 µM in assay [6]; 50.3 µM in assay [8].

Source of the values: PubChem BioAssay (NCI).
